Consider 22 compounds from PubChem BioAssay AID248 (DTP/NCI, 2004).

This assay deals with L1210 leukemia ip in BDF1 mice, survival T/C. Put plainly: NCI In Vivo Anticancer Drug Screen. Data for tumor model L1210 Leukemia (intraperitoneal) in B6D2F1 (BDF1) mice. The following applies: endpoint: mean survival time, higher = longer survival. The method, boiled down:
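Read-out is survival time, reported as the treated-group measurement over the vehicle-control measurement.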

Where [1] appears, read: dose: 100.0 mg/kg/injection, schedule: Q04DX003 (ip), vehicle: Klucel (hydroxypropylcellulose) (HPC).
Setting [2] is: dose: 200.0 mg/kg/injection, schedule: Q04DX003 (ip), vehicle: Klucel (hydroxypropylcellulose) (HPC).
[3] abbreviates: dose: 25.0 mg/kg/injection, schedule: Q04DX003 (ip), vehicle: saline with Tween-80.
Setting [4] is: dose: 50.0 mg/kg/injection, schedule: Q04DX003 (ip), vehicle: saline with Tween-80.
Setting [5] is: dose: 100.0 mg/kg/injection, schedule: Q01DX009 (ip), vehicle: saline with Tween-80.
The mark [6] stands for this setting: dose: 100.0 mg/kg/injection, schedule: Q04DX003 (ip), vehicle: saline with Tween-80.
Setting [7] is: dose: 200.0 mg/kg/injection, schedule: Q01DX009 (ip), vehicle: saline with Tween-80.
Where [8] appears, read: dose: 400.0 mg/kg/injection, schedule: Q01DX009 (ip), vehicle: saline with Tween-80.
The mark [9] stands for this setting: dose: 400.0 mg/kg/injection, schedule: Q04DX003 (ip), vehicle: Klucel (hydroxypropylcellulose) (HPC).
[10] abbreviates: dose: 100.0 mg/kg/injection, schedule: Q01DX001 (ip), vehicle: saline.
Where [11] appears, read: dose: 200.0 mg/kg/injection, schedule: Q01DX001 (ip), vehicle: saline.
The mark [12] stands for this setting: dose: 400.0 mg/kg/injection, schedule: Q01DX001 (ip), vehicle: saline.
Where [13] appears, read: dose: 100.0 mg/kg/injection, schedule: Q04DX002 (ip), vehicle: saline with Tween-80.
Where [14] appears, read: dose: 100.0 mg/kg/injection, schedule: Q04DX002 (ip), vehicle: saline.
Setting [15] is: dose: 200.0 mg/kg/injection, schedule: Q04DX002 (ip), vehicle: saline.
Where [16] appears, read: dose: 400.0 mg/kg/injection, schedule: Q04DX002 (ip), vehicle: saline with Tween-80.
Setting [17] is: dose: 25.0 mg/kg/injection, schedule: Q04DX002 (ip), vehicle: Klucel (hydroxypropylcellulose) (HPC).
Setting [18] is: dose: 50.0 mg/kg/injection, schedule: Q04DX002 (ip), vehicle: Klucel (hydroxypropylcellulose) (HPC).
Where [19] appears, read: dose: 12.5 mg/kg/injection, schedule: Q04DX002 (ip), vehicle: Klucel (hydroxypropylcellulose) (HPC).

Where “and” joins values, the source holds several entries; their conditions need not be identical. Equal entries are not always repeated. Toxic doses and inconclusive results are not listed.

Regarding `CCCCCCCN(CCCCCCC)CC(O)c1cc2ccc(Cl)cc2c2cccnc12` (stereo not drawn), the T/C reads like this: (dose: 50.0 mg/kg/injection, schedule: Q01DX009 (ip), vehicle: Klucel (hydroxypropylcellulose) (HPC)) 98 % of control; (dose: 100.0 mg/kg/injection, schedule: Q01DX009 (ip), vehicle: Klucel (hydroxypropylcellulose) (HPC)) 96 % of control; under setting [1], 102 % of control; under setting [2], 104 % of control.
Consider `O=C(O)C(Br)CCCCC(Br)C(=O)O` (stereo not drawn), for which the T/C is 105 % of control (dose: 100.0 mg/kg/injection, schedule: Q01DX001 (ip), vehicle: steriod suspending solution); 97 % of control (dose: 200.0 mg/kg/injection, schedule: Q01DX001 (ip), vehicle: steriod suspending solution); 105 % of control (dose: 400.0 mg/kg/injection, schedule: Q01DX001 (ip), vehicle: steriod suspending solution).
As to `CC(C)(CO)N=Cc1cc(Cl)cc(Cl)c1O`, the T/C was 102 % of control (dose: 75.0 mg/kg/injection, schedule: Q01DX001 (ip), vehicle: saline); 101 % of control (dose: 150.0 mg/kg/injection, schedule: Q01DX001 (ip), vehicle: saline); 109 % of control (dose: 300.0 mg/kg/injection, schedule: Q01DX001 (ip), vehicle: saline).
Consider `CCC(C#N)C1=CCCCCC1` (stereo not drawn), for which the T/C runs as follows: (dose: 12.5 mg/kg/injection, schedule: Q04DX003 (ip), vehicle: saline with Tween-80) 103 % of control; (dose: 25.0 mg/kg/injection, schedule: Q01DX009 (ip), vehicle: saline with Tween-80) 97 % of control; under setting [3], 97 % of control and 101 % of control; (dose: 50.0 mg/kg/injection, schedule: Q01DX009 (ip), vehicle: saline with Tween-80) 102 % of control; under setting [4], 110 % of control; under setting [5], 107 % of control. Also, the T/C under setting [6] was 101 % of control.
Turning to `O=C1CCC(=O)N1CC(O)COc1ccccc1` (stereo not drawn), the T/C is, setting by setting: under setting [5], 101 % of control; under setting [1], 93 % of control; under setting [7], 101 % of control; under setting [2], 97 % of control; under setting [8], 110 % of control; under setting [9], 106 % of control.
As to `CC(C)(C)C(C)(O)CN` (stereo not drawn), the T/C (dose: 100.0 mg/kg/injection, schedule: Q01DX009 (ip), vehicle: saline) is 95 % of control; the T/C (dose: 200.0 mg/kg/injection, schedule: Q01DX009 (ip), vehicle: saline) is 95 % of control; the T/C (dose: 400.0 mg/kg/injection, schedule: Q01DX009 (ip), vehicle: saline) is 95 % of control.
In the case of `Cc1cc(/C=C/c2ccccc2)nc2ccccc12`, the T/C runs as follows: under setting [10], 96 % of control; under setting [11], 100 % of control; under setting [12], 90 % of control.
With `C/C=C/C=C\COC(=O)C(C)(C)CCC`, the T/C is 90 % of control under setting [5]; 98 % of control under setting [13]; 96 % of control under setting [14]; 90 % of control under setting [7]; 95 % of control (dose: 200.0 mg/kg/injection, schedule: Q04DX002 (ip), vehicle: saline with Tween-80); 103 % of control under setting [15]. The T/C reads like this: under setting [8], 93 % of control; under setting [16], 95 % of control; (dose: 800.0 mg/kg/injection, schedule: Q04DX002 (ip), vehicle: saline with Tween-80) 95 % of control.
Turning to `CCN(C(=O)c1ccc([N+](=O)[O-])cc1)C(c1ccccc1)P(=O)(c1ccccc1)c1ccccc1` (stereo not drawn), the T/C was 89 % of control under setting [13], 95 % of control under setting [7] and 88 % of control under setting [16].
Regarding `COc1cc(C=Nc2ccc3c(c2)Cc2ccccc2-3)ccc1O`, the T/C was 94 % of control (dose: 100.0 mg/kg/injection, schedule: Q04DX003 (ip), vehicle: saline sonified); 97 % of control (dose: 200.0 mg/kg/injection, schedule: Q04DX003 (ip), vehicle: saline sonified); 95 % of control (dose: 400.0 mg/kg/injection, schedule: Q04DX003 (ip), vehicle: saline sonified).
Take `Nc1nc(Cl)c(Cl)nc1N`: the T/C reads like this: under setting [1], 95 % of control; under setting [2], 100 % of control; under setting [9], 95 % of control.
For the compound `NC(CCS)C(=O)O` (stereo not drawn), the T/C was 107 % of control under setting [14]; 110 % of control under setting [15]; 96 % of control (dose: 400.0 mg/kg/injection, schedule: Q04DX002 (ip), vehicle: saline).
As for `COc1ccc(C(=O)/C=C/c2cccc(OCc3ccccc3)c2)cc1`, the T/C was 102 % of control under setting [17]; 91 % of control under setting [18]; 102 % of control (dose: 100.0 mg/kg/injection, schedule: Q04DX002 (ip), vehicle: Klucel (hydroxypropylcellulose) (HPC)); 92 % of control (dose: 200.0 mg/kg/injection, schedule: Q04DX002 (ip), vehicle: Klucel (hydroxypropylcellulose) (HPC)); 103 % of control (dose: 400.0 mg/kg/injection, schedule: Q04DX002 (ip), vehicle: Klucel (hydroxypropylcellulose) (HPC)).
As for `CN1CCC(COC(=O)C(O)(c2ccccc2)c2ccccc2)C1` (stereo not drawn), the T/C reads like this: under setting [3], 97 % of control; under setting [4], 94 % of control; under setting [6], 101 % of control and 87 % of control.
As for `CCc1c(C)nc(N)[nH]c1=O`, the T/C under setting [6] was 106 % of control and the T/C (dose: 200.0 mg/kg/injection, schedule: Q04DX003 (ip), vehicle: saline with Tween-80) was 106 % of control.
`CCN(CC)CCOc1ccc(-c2ccccc2)cc1`: the T/C under setting [4] is 98 % of control and the T/C under setting [6] is 277 % of control.
Consider `CC(C)(C)C(=O)Cn1nnnc1C(=O)C(C)(C)C`, for which the T/C (dose: 50.0 mg/kg/injection, schedule: Q04DX003 (ip), vehicle: Klucel (hydroxypropylcellulose) (HPC)) is 105 % of control; the T/C (dose: 100.0 mg/kg/injection, schedule: Q01DX001 (ip), vehicle: Klucel (hydroxypropylcellulose) (HPC)) was 105 % of control; the T/C under setting [1] was 103 % of control; the T/C (dose: 200.0 mg/kg/injection, schedule: Q01DX001 (ip), vehicle: Klucel (hydroxypropylcellulose) (HPC)) is 108 % of control; the T/C under setting [2] is 100 % of control.
On to `CN(N=O)C(=O)NC(N)=O`, for which the T/C (dose: 1.5 mg/kg/injection, schedule: Q01DX009 (ip), vehicle: saline) is 110 % of control; the T/C (dose: 1.87 mg/kg/injection, schedule: Q01DX Z (ip), vehicle: carboxymethylcellulose (CMC)) is 115 % of control; the T/C (dose: 10.0 mg/kg/injection, schedule: Q01DX Z (ip), vehicle: carboxymethylcellulose (CMC)) was 188 % of control; the T/C (dose: 15.0 mg/kg/injection, schedule: Q01DX Z (ip), vehicle: carboxymethylcellulose (CMC)) was 177 % of control; the T/C (dose: 30.0 mg/kg/injection, schedule: Q01DX Z (ip), vehicle: carboxymethylcellulose (CMC)) was 110 % of control; the T/C (dose: 40.0 mg/kg/injection, schedule: Q01DX Z (ip), vehicle: carboxymethylcellulose (CMC)) was 91 % of control. Further, the T/C (dose: 50.0 mg/kg/injection, schedule: Q01DX Z (ip), vehicle: saline) was 122 % of control; the T/C (dose: 75.0 mg/kg/injection, schedule: Q01DX Z (ip), vehicle: saline) is 112 % of control; the T/C (dose: 100.0 mg/kg/injection, schedule: Q01DX Z (ip), vehicle: saline) is 92 % of control.
For the compound `CN(C)C(=NN)N(C)C`, the T/C by setting is: (dose: 50.0 mg/kg/injection, schedule: Q04DX003 (ip), vehicle: saline) 105 % of control; (dose: 100.0 mg/kg/injection, schedule: Q04DX003 (ip), vehicle: saline) 100 % of control; (dose: 200.0 mg/kg/injection, schedule: Q04DX003 (ip), vehicle: saline) 100 % of control.
For `CCCCCC(=O)OC1(C(C)=O)CCC2C3CCC4=CC(=O)CCC4C3CCC21C` (stereo not drawn), the T/C is 94 % of control under setting [19], 90 % of control under setting [17] and 94 % of control under setting [18].
Regarding `COC1OC2COC(c3ccccc3)OC2C(OC)C1O` (stereo not drawn), the T/C is 103 % of control under setting [19], 100 % of control under setting [17] and 100 % of control under setting [18].
As to `CCOC(=O)c1cc(Cl)c2ccccc2n1`, the T/C by setting is: under setting [10], 96 % of control; under setting [11], 98 % of control; under setting [12], 96 % of control.
